Reference: patent US8859628B2, “Method for preventing, treating and diagnosing disorders of protein aggregation” (priority 2003, dated 2014)
“Also recorded” adds a separate entry of the source. Marks after values point to notes of the source that are not given here.

Tests used:
TgCRND8 mice [1] = assay: Morris Water Maze, spatial reference memory version, five-day trial paradigm (prevention study); format: in vivo, mouse; conditions: 6 months of age
Experimental: Age and sex-matched cohorts of TgCRND8 mice and non-transgenic littermates (n=35 in each cohort) were either untreated, or were given a compound of the present invention as indicated below at 30 mg/day/mouse beginning at age of about 6 weeks. The mice were followed for outcome measures cognitive function, brain Aβ levels, brain pathology, and survival at 4 months and 6 months of age.
Two cohorts entered the study at 6 weeks of age and outcomes were analyzed at 4- and 6-months of age. The body weight, coat characteristics and in cage behavior was monitored. All experiments were performed according to the Canadian Council on Animal Care guidelines.
(§1) Behavioral tests—After non-spatial pre-training, mice underwent place discrimination training for 5 days with 4 trials per day. Behavioral data was analyzed using a mixed model of factorial analysis of variance (ANOVA) with drug or genotype and training sessions as repeated measure factors.
The cognitive function of TgCRND8 mice was assessed using the spatial reference memory version of the Morris Water Maze using a five-day trial paradigm (FIGS. 1C-1H). […] The improved performance was also not due to nutritional or caloric effects because body weight, activity, and coat condition were not different between treated and untreated cohorts. […] Gender effects were not significant between any treatment group (p=0.85).

TgCRND8 mice [2] = assay: Cerebral amyloid plaque burden (anti-Aβ immunostaining, image analysis); format: in vivo, mouse
Experimental: (§2) Cerebral amyloid burden—Brains were removed and one hemisphere was fixed in 4% paraformaldehyde and embedded in paraffin wax in the mid saggital plane. To generate sets of systematic uniform random sections, 5 μm serial sections were collected across the entire hemisphere. Sets of sections at […] intervals were used for analyses (10-14 sections/set). Plaque were identified after antigen retrieval with formic acid, and incubated with primary anti-Aβ antibody (Dako M-0872), followed by secondary antibody (Dako StreptABCcomplex/horseradish kit). End products were visualized with DAB counter-stained with hematoxylin. Amyloid plaque burden was assessed using Leco IA-3001 image analysis software interfaced with Leica microscope and Hitachi KP-M1U CCD video camera. Vascular burden was analyzed similarly and a dissector was used to measure the diameter of affected vessels.
as §2, with “camera.” for “camera. Vascular burden was analyzed similarly and a dissector was used to measure the diameter of affected vessels.”

TgCRND8 mice [3] = assay: Gliosis quantitation (GFAP astrocytes, CD68 microglia); format: in vivo, mouse; conditions: prevention
Text: Gliosis Quantitation—Five randomly selected, evenly spaced, sagittal sections were collected from paraformaldehyde-fixed and frozen hemispheres of treated and control mice. Sections were immunolabelled for astrocytes with anti-rat GFAP IgG2a (Dako; diluted 1:50) and for microglia with anti-rat CD68 IgG2b (Dako; 1:50).
Serial sagittal sections were stained with the astrocytic marker glial fibrillary acidic protein (GFAP) and quantitated for percent brain area covered by astrogliosis.

TgCRND8 mice [4] = assay: Vascular amyloid burden; format: in vivo, mouse; conditions: 6 months of age
Experimental: as §2
Alzheimer's disease is characterized by the presence of both parenchymal and vascular amyloid deposits. In untreated 6 month old TgCRND8 mice approximately 0.03% of the brain area is associated with vascular amyloid.

TgCRND8 mice [5] = assay: Survival census (Kaplan-Meier); format: in vivo, mouse; conditions: at 175 days; n=35 per group
Experimental: Survival Census—The probability of survival was assessed by the Kaplan-Meier technique, computing the probability of survival at every occurrence of death, thus making it suitable for small sample sizes. For the analyses of survival, 35 mice were used for each treatment group. The comparison between treatments was reported using the Tarone-Ware test.

TgCRND8 mice [6] = assay: Morris Water Maze, spatial reference memory version, three-day trial paradigm (treatment/reversal study); format: in vivo, mouse; conditions: three-day paradigm
Experimental: A cohort entered the study at 5 months of age and outcomes were analyzed at 6-months of age. The body weight, coat characteristics and in cage behavior was monitored. All experiments were performed according to the Canadian Council on Animal Care guidelines.
(§3) Behavioral Test—Reversal Study—Mice entered the Morris water maze test with a hidden platform on day one without pretraining. Mice were tested for 3 days with six trials per day. On the fourth day, the platform was removed from the pool and each mouse received one 30-s swim probe trial. On the last day the animals underwent a cue test in order to evaluate swimming ability, eye sight and general cognition. The cue test is composed at the platform being placed in a different quadrant than that used for testing and is tagged with a flag. Animals are allowed 60 s to find the platform. […] Behavioural data was analysed using a mixed model of factorial analysis of variance (ANOVA) with drug or genotype and training sessions as repeated measure factors.
The cognitive function of TgCRND8 mice was assessed using the spatial reference memory version of the Morris Water Maze using a three day trial paradigm (FIGS. 4-8).
Behavioural data was analysed using a mixed model of factorial analysis of variance (ANOVA) with drug and genotype as between subject variables and training sessions as within subject variable.
(§4) In these experiments, the dosage and oral administration of compounds, and the behavioral and neurochemical assays were the same as those employed in the above treatment experiments.

TgCRND8 mice [7] = conditions: mouse, in vivo
Text: Animals were sacrificed after one month of treatment and analysed for pathological outcomes.
as §4

TgPS1xAPP mice = assay: Plaque burden in double transgenic PS1 x APP model (prophylactic trial); format: in vivo, mouse; conditions: 2 months of age
Text: Tg PS1 x APP mice are an enhanced model of Alzheimer's disease which express a mutant human PS1 transgene encoding two familial mutations (M146L and L286V) in conjunction with the human APP transgene encoding the Indiana and Swedish familial mutations. These animals develop robust expression of cerebral Aβ levels and amyloid deposition by 30-45 days of age.

non-Tg littermates = assay: Morris Water Maze performance of treated non-Tg littermates; format: in vivo, mouse; conditions: treated vs untreated non-Tg
Experimental: as §1, §3

wild type mice = assay: Control experiment: survival and general condition of treated wild type mice; format: in vivo, mouse
[8] = 1 month treatment from 5 months of age
[9] = 1 month treatment, 30 mg/mouse/day from 5 months, analyzed at 6 months of age
[10] = 4 month prevention, 30 mg/mouse/day from 6 weeks of age
[11] = 6 month prevention, 30 mg/mouse/day from 6 weeks of age

Structure (SMILES): O[C@H]1[C@H](O)[C@@H](O)[C@H](O)[C@@H](O)[C@@H]1O [Scyllo-Inositol, scyllo-inositol]
- cognitive function, treated TgCRND8 mice vs non-Tg littermates (words) (TgCRND8 mice [1]): indistinguishable from non-Tg littermates on all days; also recorded: approached that of non-Tg littermates
- cognitive function, treated vs untreated TgCRND8 mice (words) (TgCRND8 mice [1]): performed significantly better than untreated TgCRND8 mice
- plaque burden vs untreated (TgCRND8 mice [2]; [8]): significantly decreased the plaque burden and the Aβ load
- Plaque Area (TgCRND8 mice [2]; [9]): 420027 ± 14986* μm^2
- Plaque Count (TgCRND8 mice [2]; [9]): 1260 ± 27
- Total Plaque Area/Total Brain Area (TgCRND8 mice [2]; [9]): 0.119 ± 0.010 %
- Plaque Area (TgCRND8 mice [2]; [10]): 63847 ± 2895 μm^2
- Plaque Count (TgCRND8 mice [2]; [10]): 598 ± 19
- Total Plaque Area/Total Brain Area (TgCRND8 mice [2]; [10]): 0.015 ± 0.001 %
- Plaque Area (TgCRND8 mice [2]; [11]): 262379 ± 5373† μm^2
- Plaque Count (TgCRND8 mice [2]; [11]): 774 ± 10
- Total Plaque Area/Total Brain Area (TgCRND8 mice [2]; [11]): 0.079 ± 0.013 %
- amyloid/plaque burden vs untreated (words) (TgCRND8 mice [2]; 6 months of age, prevention): significantly decreased amyloid burden and gliosis; also recorded: decreases plaque deposition
- mean plaque size (TgCRND8 mice [2]; prevention, 4 months of age): 103±4 μm^2
- decrease in brain area covered with plaques (TgCRND8 mice [2]; prevention, 6 months of age): 35%
- mean plaque size (TgCRND8 mice [2]; prevention, 6 months of age): 339±10 μm^2
- reduction in plaque number (TgCRND8 mice [2]; prevention, 6 months of age): 20%
- astrogliosis/gliosis vs untreated (TgCRND8 mice [3]; 6 months of age): significantly decreased amyloid burden and gliosis
- astrogliosis, percent brain area covered (GFAP) (TgCRND8 mice [3]; 6-months of age): 0.269±0.028%
- microglial activation, % brain area (TgCRND8 mice [3]; 6 months): 0.20±0.008%
- mean size of cerebrovascular plaques (TgCRND8 mice [4]; prevention): 154±16
- vascular amyloid burden vs untreated (words) (TgCRND8 mice [4]; prevention, listed as Scyllo-inositol): significantly decreased the total vascular load
- vascular amyloid burden vs untreated (words) (TgCRND8 mice [4]; prevention, listed as scyllo-inositol): significantly decreased the vascular amyloid burden
- vascular amyloid deposition in small vessels (TgCRND8 mice [4]; smaller vessels): 56±2%
- survival (TgCRND8 mice [5]): 72%
- cognitive function, treated TgCRND8 mice vs non-Tg littermates (words) (TgCRND8 mice [6]; [8]): indistinguishable from non-Tg littermates on all days; also recorded: comparable to scyllo-inositol treated non-Tg littermates
- cognitive function, treated TgCRND8 mice vs treated non-Tg littermates (TgCRND8 mice [6]; two months of treatment from 5 months of age): indistinguishable from scyllo-inositol treated non-Tg littermates; also recorded: remained indistinguishable from non-Tg littermates
- effects on blood chemistry or organ function (TgCRND8 mice [7]): do not exhibit obvious deleterious effects on blood chemistry or organ function
- amyloid/plaque burden vs untreated (words) (TgPS1xAPP mice; listed as Scyllo-inositol): significantly decreased amyloid burden
- amyloid/plaque burden vs untreated (words) (TgPS1xAPP mice; listed as scyllo-inositol): significantly reduced
- % brain area covered in plaques (TgPS1xAPP mice; treated from weaning): 0.065±0.016%
- Plaque Count (TgPS1xAPP mice; treated from weaning): 1514±510
- mean plaque size (TgPS1xAPP mice; treated from weaning): 149±5 μm^2
- effect on performance of non-Tg mice (non-Tg littermates): had no effect on the performance of non-Tg mice; also recorded: not effected
- survival, weight, fur condition, cage behavior (wild type mice): had no effect either on survival or on other parameters such as weight, fur condition or cage behavior
